Measured values: patent US8134012B2 (priority 2005, dated 2012)
Where two headings read alike, the source gives them in different places.

Legend:
Pyricularia oryzae = format: cell-based
Alternaria mali = conditions: active compound concentration 1 ppm; 3 days incubation in PDB; single active compound

Structure (SMILES) | Efficacy in % found (Pyricularia oryzae; active compound concentration 0.03 ppm, 4 days incubation in PDB, single active compound) [%] | Efficacy in % found (Alternaria mali) [%] | Efficacy in % found (Pyricularia oryzae) [%]
Cc1nn(C)c(F)c1C(=O)Nc1ccccc1C(C)CC(C)C (stereo not shown) [(1-2), N-[2-(1,3-dimethylbutyl)phenyl]-5-fluoro-1,3-dimethyl-1H-pyrazole-4-carboxamide] | 20 | 83 | 
COP(=S)(OC)Oc1c(Cl)cc(C)cc1Cl [(2) tolclofos-methyl, tolclofos-methyl] |  |  | 13
CC(C)Oc1cccc(NC(=O)c2ccccc2C(F)(F)F)c1 [(3) flutolanil, flutolanil] |  | 12 | 
